Experiment [1] relates to pigweed, palmer. In words: Test A postemergence. The experiment is classed as in vivo, Amaranthus palmeri. To be noted: 1000 g ai/ha, Postemergence, 0 to 100 scale; for pest or weed control at 1000 g/ha: Amaranthus palmeri, post-emergence, 240 h, read-out: Plant response rating, Pigweed, Palmer. An excerpt:
(§1) Seeds of plant species selected from barnyardgrass (Echinochloa crusgalli), blackgrass (Alopecurus myosuroides), corn (Zea mays), foxtail, giant (giant foxtail, Setaria faberi), goosegrass (Eleusine indica), kochia (Bassia scoparia), oat, wild (wild oat, Avena fatua), pigweed, palmer (palmer amaranth, palmer pigweed, Amaranthus palmeri), Pigweed, Redroot (redroot pigweed, Amaranthus retroflexus), ragweed (common ragweed, Ambrosia artemisiifolia), ryegrass, Italian (italian ryegrass, Lolium multiflorum), soybean (Glycine max), and wheat (Triticum aestivum) were planted into a blend of loam soil and sand and treated preemergence with a directed soil spray using test chemicals formulated in a non-phytotoxic solvent mixture which included a surfactant. At the same time, plants selected from these crops and weed species and also galium (catchweed bedstraw, Galium aparine) and horseweed (Erigeron canadensis) were planted in pots containing the same blend of loam soil and sand and treated with postemergence applications of test chemicals formulated in the same manner. Plants ranged in height from 2 to 10 cm and were in the one- to two-leaf stage for the postemergence treatment. Treated plants and untreated controls were maintained in a greenhouse for 10 days, after which time all treated plants were compared to untreated controls and visually evaluated for injury. Plant response ratings, summarized in Table A, are based on a 0 to 100 scale where 0 is no effect and 100 is complete control. A dash (-) response means no test result.

Experiment [2] concerns goosegrass. In words: Test A postemergence. The experiment is classed as in vivo, Eleusine indica. Conditions: 1000 g ai/ha, Postemergence, 0 to 100 scale; for pest or weed control at 1000 g/ha: Eleusine indica, post-emergence, 240 h, read-out: Plant response rating, Goosegrass.
Source text: as §1

The subject of another experiment is barnyardgrass. The experiment in a line: Test B flooded paddy test. The experiment is classed as in vivo, Echinochloa crus-galli. Conditions: 250 g ai/ha, Flood, 13 days, 0 to 100 scale (0 no effect, 100 complete control); for pest or weed control at 250 g/ha: Echinochloa crus-galli, 312 h, read-out: Plant response rating, Barnyardgrass. As for the experimental part:
(§2) Plant species in the flooded paddy test selected from barnyardgrass (Echinochloa crus-galli), ducksalad (Heteranthera limosa), rice (Oryza sativa), and sedge, umbrella (small-flower umbrella sedge, Cyperus difformis) were grown to the 2-leaf stage for testing. At time of treatment, test pots were flooded to 3 cm above the soil surface, treated by application of test compounds directly to the paddy water, and then maintained at that water depth for the duration of the test. Treated plants and controls were maintained in a greenhouse for 13 days, after which time all species were compared to controls and visually evaluated. Plant response ratings, summarized in Table B, are based on a scale of 0 to 100 where 0 is no effect and 100 is complete control. A dash (-) response means no test result.

In experiment [3] the test system is ragweed. The experiment in a line: Test A preemergence. It counts as in vivo, Ambrosia artemisiifolia. Conditions: 1000 g ai/ha, 0 to 100 scale (0 no effect, 100 complete control), 10 days; for pest or weed control at 1000 g/ha: Ambrosia artemisiifolia, pre-emergence, 240 h, read-out: Plant response rating, Ragweed.
Source text: as §1

The next experiment relates to rice. The experiment in a line: Test B flooded paddy test. The experiment is classed as in vivo, Oryza sativa. Conditions: 250 g ai/ha, Flood, 13 days, 0 to 100 scale (0 no effect, 100 complete control); for plant injury at 250 g/ha: Oryza sativa, 312 h, read-out: Plant response rating, Rice. As for the experimental part:
as §2

Another experiment concerns galium. The experiment in a line: Test A postemergence. It counts as in vivo, Galium aparine. To be noted: 1000 g ai/ha, Postemergence, 0 to 100 scale; for pest or weed control at 1000 g/ha: Galium, post-emergence, 240 h, read-out: Plant response rating, Galium.
Source text: as §1

The subject of experiment [4] is blackgrass. The experiment in a line: Test A preemergence. Conditions: 1000 g ai/ha, 0 to 100 scale (0 no effect, 100 complete control), 10 days; for pest or weed control at 1000 g/ha: Alopecurus myosuroides, pre-emergence, 240 h, read-out: Plant response rating, Blackgrass. The experiment is classed as in vivo, Alopecurus myosuroides.
Source text: as §1

Experiment [5] relates to foxtail, giant. In words: Test A preemergence. It counts as in vivo, Setaria faberi. Conditions: 1000 g ai/ha, 0 to 100 scale (0 no effect, 100 complete control), 10 days; for pest or weed control at 1000 g/ha: Setaria faberi, pre-emergence, 240 h, read-out: Plant response rating, Foxtail, Giant.
Source text: as §1

Experiment [6] concerns ryegrass, Italian. The experiment in a line: Test A preemergence. It counts as in vivo, Lolium multiflorum. Conditions: 1000 g ai/ha, 0 to 100 scale (0 no effect, 100 complete control), 10 days; for pest or weed control at 1000 g/ha: Lolium multiflorum, pre-emergence, 240 h, read-out: Plant response rating, Ryegrass, Italian.
Source text: as §1

The test system of experiment [7] is blackgrass. In words: Test A postemergence. The experiment is classed as in vivo, Alopecurus myosuroides. Conditions: 1000 g ai/ha, Postemergence, 0 to 100 scale; for pest or weed control at 1000 g/ha: Alopecurus myosuroides, post-emergence, 240 h, read-out: Plant response rating, Blackgrass.
Source text: as §1

In another experiment the test system is sedge, umbrella. In words: Test B flooded paddy test. It counts as in vivo, Cyperus difformis. To be noted: 250 g ai/ha, Flood, 13 days, 0 to 100 scale (0 no effect, 100 complete control); for pest or weed control at 250 g/ha: Cyperus difformis, 312 h, read-out: Plant response rating, Sedge, Umbrella. As for the experimental part:
as §2

Experiment [8] deals with foxtail, giant. The experiment in a line: Test A postemergence. To be noted: 1000 g ai/ha, Postemergence, 0 to 100 scale; for pest or weed control at 1000 g/ha: Setaria faberi, post-emergence, 240 h, read-out: Plant response rating, Foxtail, Giant. It counts as in vivo, Setaria faberi.
Source text: as §1

The test system of experiment [9] is ryegrass, Italian. The experiment in a line: Test A postemergence. The experiment is classed as in vivo, Lolium multiflorum. To be noted: 1000 g ai/ha, Postemergence, 0 to 100 scale; for pest or weed control at 1000 g/ha: Lolium multiflorum, post-emergence, 240 h, read-out: Plant response rating, Ryegrass, Italian.
Source text: as §1

Experiment [10] has as its system ragweed. In words: Test A postemergence. It counts as in vivo, Ambrosia artemisiifolia. To be noted: 1000 g ai/ha, Postemergence, 0 to 100 scale; for pest or weed control at 1000 g/ha: Ambrosia artemisiifolia, post-emergence, 240 h, read-out: Plant response rating, Ragweed.
Source text: as §1

The next experiment relates to horseweed. The experiment in a line: Test A postemergence. The experiment is classed as in vivo, Erigeron canadensis. To be noted: 1000 g ai/ha, Postemergence, 0 to 100 scale; for pest or weed control at 1000 g/ha: Erigeron canadensis, post-emergence, 240 h, read-out: Plant response rating, Horseweed.
Source text: as §1

The test system of experiment [11] is kochia. The experiment in a line: Test A preemergence. It counts as in vivo, Bassia scoparia. Conditions: 1000 g ai/ha, 0 to 100 scale (0 no effect, 100 complete control), 10 days; for pest or weed control at 1000 g/ha: Bassia scoparia, pre-emergence, 240 h, read-out: Plant response rating, Kochia.
Source text: as §1

Experiment [12] deals with goosegrass. The experiment in a line: Test A preemergence. It counts as in vivo, Eleusine indica. To be noted: 1000 g ai/ha, 0 to 100 scale (0 no effect, 100 complete control), 10 days; for pest or weed control at 1000 g/ha: Eleusine indica, pre-emergence, 240 h, read-out: Plant response rating, Goosegrass.
Source text: as §1

Experiment [13] has as its system kochia. The experiment in a line: Test A postemergence. The experiment is classed as in vivo, Bassia scoparia. Conditions: 1000 g ai/ha, Postemergence, 0 to 100 scale; for pest or weed control at 1000 g/ha: Bassia scoparia, post-emergence, 240 h, read-out: Plant response rating, Kochia.
Source text: as §1

For the next experiment, the system named is ducksalad. The experiment in a line: Test B flooded paddy test. Conditions: 250 g ai/ha, Flood, 13 days, 0 to 100 scale (0 no effect, 100 complete control); for pest or weed control at 250 g/ha: Heteranthera limosa, 312 h, read-out: Plant response rating, Ducksalad. The experiment is classed as in vivo, Heteranthera limosa. The protocol: as §2
Experiment [14] deals with pigweed, palmer. In words: Test A preemergence. It counts as in vivo, Amaranthus palmeri. Conditions: 1000 g ai/ha, 0 to 100 scale (0 no effect, 100 complete control), 10 days; for pest or weed control at 1000 g/ha: Amaranthus palmeri, pre-emergence, 240 h, read-out: Plant response rating, Pigweed, Palmer.
Source text: as §1

On to `O=C(c1ccnc(-n2cncn2)c1)N1CC(C(F)(F)F)Oc2c(Cl)cccc21` (centres unmarked) [Compound 34], for which the “Plant response rating, Pigweed, Palmer” value in the experiment on pigweed, palmer [1] worked out at 80; with pigweed, palmer [14] it was 100. In addition, the “Plant response rating, Goosegrass” value in the experiment on goosegrass [2] is 50; in the experiment on goosegrass [12], 100. Further, the “Plant response rating, Barnyardgrass” value in the experiment with barnyardgrass is on record as 0. The “Plant response rating, Ragweed” value stood at 20 in the experiment on ragweed [3] and 50 in the experiment on ragweed [10]. Also, the “Plant response rating, Rice” value with rice turned out to be 0. The “Plant response rating, Galium” value in the experiment on galium was determined as 100. The “Plant response rating, Blackgrass” value in the experiment on blackgrass [4] worked out at 80; in the experiment with blackgrass [7], 70. Further, the “Plant response rating, Foxtail, Giant” value in the experiment with foxtail, giant [5] was found to be 100; in the experiment on foxtail, giant [8], 100. For the same compound, the “Plant response rating, Ryegrass, Italian” value with ryegrass, Italian [6] is 90; in the experiment on ryegrass, Italian [9], 90. In addition, the “Plant response rating, Sedge, Umbrella” value in the experiment on sedge, umbrella is on record as 0. The “Plant response rating, Horseweed” value in the experiment on horseweed was 0. Also, the “Plant response rating, Kochia” value is 90 with kochia [11] and 100 in the experiment on kochia [13]. Moreover, in the experiment on ducksalad, the “Plant response rating, Ducksalad” value is reported as 0.

`Cc1cccc2c1O[C@@H](C(F)(F)F)CN2C(=O)c1cccc(-n2cncn2)c1` (single isomer, unassigned) [Compound 68]: the pest or weed control at 1000 g/ha in the experiment on pigweed, palmer [1] was 50%; in the experiment with goosegrass [2], 90%; with ragweed [3] it was 70%; in the experiment with galium, 100%; in the experiment on blackgrass [4], 80%; in the experiment with foxtail, giant [5], 100%. Also, the pest or weed control at 1000 g/ha in the experiment with ryegrass, Italian [6] was found to be 100%; in the experiment with blackgrass [7], 80%; with foxtail, giant [8] it was 90%; in the experiment on ryegrass, Italian [9], 90%; in the experiment on ragweed [10], 60%; with horseweed it was 0%. The pest or weed control at 1000 g/ha with kochia [11] stood at 90%; with goosegrass [12], 100%; in the experiment on kochia [13], 80%; with pigweed, palmer [14], 100%. Further, the pest or weed control at 250 g/ha turned out to be 0% with barnyardgrass; 65% with sedge, umbrella; 55% with ducksalad. Moreover, the plant injury at 250 g/ha in the experiment with rice was determined as 0%.

`COc1cccc2c1OC(C)CN2C(=O)c1cccc(-n2cncn2)c1` (centres unmarked) [Compound 41]: the “Plant response rating, Pigweed, Palmer” value came out at 20 in the experiment on pigweed, palmer [1] and 30 with pigweed, palmer [14]. Further, the “Plant response rating, Goosegrass” value is 0 in the experiment with goosegrass [2] and 90 in the experiment with goosegrass [12]. Moreover, in the experiment on barnyardgrass, the “Plant response rating, Barnyardgrass” value was found to be 0. The “Plant response rating, Ragweed” value in the experiment with ragweed [3] and in the experiment with ragweed [10] was 0 each time. The “Plant response rating, Rice” value with rice was found to be 0. Also, the “Plant response rating, Galium” value with galium was determined as 70. The “Plant response rating, Blackgrass” value was found to be 30 in the experiment with blackgrass [4] and 50 with blackgrass [7]. The “Plant response rating, Foxtail, Giant” value in the experiment with foxtail, giant [5] was 90; in the experiment on foxtail, giant [8], 60. For the same compound, the “Plant response rating, Ryegrass, Italian” value in the experiment on ryegrass, Italian [6] amounted to 70; in the experiment with ryegrass, Italian [9] it was 60. Besides, the “Plant response rating, Sedge, Umbrella” value in the experiment on sedge, umbrella is recorded as 55. The “Plant response rating, Horseweed” value with horseweed came to 0. The “Plant response rating, Kochia” value in the experiment on kochia [11] was 0; in the experiment on kochia [13] it was 20. The “Plant response rating, Ducksalad” value in the experiment with ducksalad is reported as 50.

Take `Cc1cccc2c1O[C@H](C(F)(F)F)CN2C(=O)c1cccc(-n2cncn2)c1` (single isomer, unassigned) [Compound 58]: the pest or weed control at 1000 g/ha in the experiment with pigweed, palmer [1] came to 20%; in the experiment with goosegrass [2], 20%; in the experiment with ragweed [3], 0%; with galium, 60%; in the experiment on blackgrass [4], 40%; with foxtail, giant [5], 80%. For the same compound, the pest or weed control at 1000 g/ha amounted to 90% in the experiment with ryegrass, Italian [6]; 20% in the experiment on blackgrass [7]; 30% with foxtail, giant [8]; 30% in the experiment with ryegrass, Italian [9]; 10% with ragweed [10]; 0% in the experiment with horseweed. The pest or weed control at 1000 g/ha was 20% in the experiment on kochia [11]; 90% in the experiment on goosegrass [12]; 60% with kochia [13]; 80% in the experiment on pigweed, palmer [14]. For the same compound, the pest or weed control at 250 g/ha in the experiment with barnyardgrass came to 0%; with sedge, umbrella, 0%; with ducksalad, 0%. Besides, the plant injury at 250 g/ha in the experiment with rice is 0%.

The record behind these values is patent US20260262643A1, “HERBICIDAL BENZOXAZINES” (FMC CORPORATION, priority 2022, published 2026).
